{"source": "patent US20180110770A1", "about": "“FERROPTOSIS AND GLUTAMINOLYSIS INHIBITORS AND METHODS OF TREATMENT” (MEMORIAL SLOAN-KETTERING CANCER CENTER, priority 2015, published 2018)", "key": {"MEFs [1]": {"system": "MEFs", "assay": "Erastin-induced ferroptosis", "format": "cell-based, mouse", "conditions": "erastin 1 μM, 12 hrs, DFO 80 μM, CPX 10 μM, 968 20 μM, AOA 0.5 mM, U0126 and PD0325901 10 μM"}, "MEFs [2]": {"system": "MEFs", "assay": "Serum-dependent necrosis (serum-induced cell death) upon amino acid or cystine starvation", "format": "cell-based, mouse", "conditions": "12 hrs, NAC 0.2 mM, Trolox 0.2 mM; for inhibition of serum-dependent necrosis (cell viability / cell death): total amino acid starvation in the presence of FBS, GPNA 5 mM, 968 20 μM, AOA 0.5 mM, BPTES 10 μM, DFO 80 μM, CPX 10 μM, BIP 100 μM, cysteine/cystine 0.2 mM, U0126 and PD0325901 10 μM; for inhibition of serum-dependent cell death triggered by cystine starvation: cystine starvation in the presence of serum", "experimental": "(§1) To induce cell death, 80%-confluent cells were washed with PBS twice, and then cultured in amino acid-free medium, with specific factors added as indicated in individual experiments. Cell death was analyzed by propidium iodide (PI) staining coupled with microscopy or flow cytometry. Alternatively, cell viability was determined using the CellTiter-Glo luminescent Cell Viability Assay (Promega). In assays using WT MEFs, viability was calculated by normalizing ATP levels to cells treated with amino acid-starvation in the presence of 10% (v/v) diFBS, while in assays using bax/bak-DKO MEFs, ATP levels were normalized to cells treated with amino acid and FBS double starvation."}, "[3]": {"system": "hearts isolated from wild-type mice", "assay": "Ischemia-reperfusion (I/R) analysis using isolated hearts (ex vivo heart model)", "format": "in vivo", "conditions": "ex vivo mouse heart, DFO 80 μM; for left ventricular developed pressure (LVDP) recovery at the end of reperfusion / myocardial infarct size (TTC staining): 30 min global ischemia, 60 min reperfusion; for left ventricular developed pressure (LVDP) recovery at the end of reperfusion: 968 25 μM in perfusate, vehicle 43.20%±1.66%; for myocardial infarct size (TTC staining): vehicle 30.82%±0.57%", "experimental": "Male C57BL/6J mice weighing 25-30 g at age 12-14 weeks were used in all experiments and maintained in a temperature-controlled room with alternating 12:12-h light-dark cycles. Experiments were performed using an isovolumic isolated heart preparation as published and modified for the use in mice hearts ([…] et al., 2009; Hwang et al., 2004). Hearts from 12-14 weeks aged wild-type mice were isolated, and retrograde perfused at 37° C. in a non-recirculating mode through the aorta at a rate of 2.5 ml/min. Hearts were perfused with modified Krebs-Henseleit (KH) buffer (118 mM NaCl, 4.7 mM KCl, 2.5 mM CaCl2, 1.2 mM MgCl2, 25 mM NaHCO3, 5 mM glucose, 0.4 mM palmitate, 0.2 mM glutamine, 10 μg/ml human recombinant transferrin, 0.4 mM BSA, and 70 mU/1 insulin). Left ventricular developed pressure (LVDP) was measured using a latex balloon in the left ventricle. LVDP and coronary perfusion pressure were monitored continuously on a four-channel Gould recorder. Hearts were perfused either with KH buffer containing vehicle (DMSO) or the Compounds throughout the FR protocol. After an equilibration period of 30 min, global ischemia was performed for 30 min followed by 60 minutes of reperfusion. Cardiac injury due to I/R stress was assessed by measuring LDH release in the perfusates that were collected during 60 min of reperfusion. […] After 60 min of reperfusion, the heart is perfused with Evans blue in-situ and then removed. Hearts were sliced into cross-sections at approximately 1-mm intervals. The sections were embedded in the TTC solution at 37° C. for 10 min, and area of infarct as a percent of the whole heart was quantified as described. Functional recovery of LVDP was expressed by comparing to the initial LVDP before ischemia. All animal experiments were approved by the Institutional Animal Care and Use Committees of New York University School of Medicine and conformed to the guidelines outlined in the National Institutes of Health Guide for Care and Use of Laboratory Animals (NIH Pub. No. 85-23, 1996)."}, "[4]": {"assay": "2,2-Diphenyl-1-picrylhydrazyl assay for antioxidant activity", "conditions": "compound 50 μM, DPPH 50 μM in methanol, 1 hr, room temperature, absorbance at 517 nm", "experimental": "The experiment was performed as described previously (Blois, 1958; Dixon et al., 2012). 2,2-Diphenyl-1-picrylhydrazyl (DPPH) (Sigma Cat#D9132) was dissolved in methanol to a final concentration of 50 μM. The tested compounds were added to 1 ml of DPPH solution with a final concentration of 50 μM. Samples were mixed well and incubated at room temperature for 1 hr. The absorbance at 517 nm (indicating the concentration of non-reduced DPPH) was measured using methanol as control."}, "TNF-α induced apoptosis": {"system": "TNF-α induced apoptosis", "assay": "TNF-α induced apoptosis", "format": "cell-based", "conditions": "TNF-α 50 ng/ml + SMAC mimetic 0.5 μM; AOA 0.5 mM"}, "MEFs [5]": {"system": "MEFs", "assay": "Death-inducing activity of serum small molecules under amino acid starvation with diFBS", "format": "cell-based, mouse", "conditions": "12 hrs, α-KG 4 mM also in the presence of AOA 0.5 mM, glucose with diFBS or transferrin", "experimental": "as §1"}, "bax/bak-DKO MEFs": {"system": "bax/bak-DKO MEFs", "assay": "Death-inducing activity of transferrin and L-Gln under amino acid starvation", "format": "cell-based, mouse", "conditions": "12 hrs", "experimental": "as §1"}, "MEK1/2": {"system": "MEK1/2", "conditions": "MEFs, PD0325901 10 μM, U0126 10 μM, Western blotting"}, "caspase-3 activation": {"system": "caspase-3 activation", "assay": "Caspase-3 activation induced by UV light (Western blot)", "format": "cell-based"}}, "note": "Peptide text beside a SMILES is read from it. * marks the point of attachment. Cbz = O=C(OCc1ccccc1)*; CH2F = FC*", "data": [{"molecule": "Cc1cc(C2CCCCC2)n(O)c(=O)c1", "note": "[CPX, ciclopirox olamine]", "values": [{"measurement": "inhibition of erastin-induced ferroptosis (PI staining, flow cytometry)", "setting": "MEFs [1]", "value": "inhibited"}, {"measurement": "inhibition of serum-dependent necrosis (cell viability / cell death)", "setting": "MEFs [2]", "value": "blocked"}]}, {"molecule": "N[C@@H](CCC(=O)Nc1ccc([N+](=O)[O-])cc1)C(=O)O", "note": "[GPNA, L-g-glutamyl-p-nitroanilide]", "values": [{"measurement": "inhibition of serum-dependent necrosis (cell viability / cell death)", "setting": "MEFs [2]", "value": "markedly blocked"}]}, {"molecule": "CC(=O)N(O)CCCCCNC(=O)CCC(=O)N(O)CCCCCNC(=O)CCC(=O)N(O)CCCCCN", "note": "[DFO, Deferoxamine]", "values": [{"measurement": "left ventricular developed pressure (LVDP) recovery at the end of reperfusion", "setting": "[3]", "value": "64.75%±4.09%"}, {"measurement": "myocardial infarct size (TTC staining)", "setting": "[3]; 968 25 μM", "value": "22.60%±0.97%"}]}, {"molecule": "O=C(NOC[C@H](O)CO)c1ccc(F)c(F)c1Nc1ccc(I)cc1F", "note": "[PD0325901]", "values": [{"measurement": "antioxidant activity (reduction of DPPH)", "setting": "[4]", "value": "showed no anti-oxidant function"}]}, {"molecule": "CN(C)c1ccc(C2Nc3ccc4ccccc4c3C3=C2C(=O)CC(C)(C)C3)cc1Br", "note": "(stereo not drawn) [Compound 968]", "values": [{"measurement": "left ventricular developed pressure (LVDP) recovery at the end of reperfusion", "setting": "[3]", "value": "75.25%±5.75%"}, {"measurement": "myocardial infarct size (TTC staining)", "setting": "[3]; 968 25 μM", "value": "17.36%±0.47%"}, {"measurement": "release of lactate dehydrogenase (LDH) during reperfusion", "setting": "[3]; perfusates collected during 60 min reperfusion, 968 25 μM", "value": "significantly inhibited"}, {"measurement": "inhibition of erastin-induced ferroptosis (PI staining, flow cytometry)", "setting": "MEFs [1]", "value": "can also inhibit"}, {"measurement": "antioxidant activity (reduction of DPPH)", "setting": "[4]", "value": "showed no anti-oxidant function"}, {"measurement": "inhibition of serum-dependent necrosis (cell viability / cell death)", "setting": "MEFs [2]", "value": "completely inhibited"}]}, {"molecule": "N[C@@H](CS)C(=O)O", "note": "[cysteine]", "values": [{"measurement": "inhibition of serum-dependent necrosis (cell viability / cell death)", "setting": "MEFs [2]", "value": "rescued cells from necrosis"}]}, {"molecule": "NOCC(=O)O", "note": "[AOA, amino-oxyacetate]", "values": [{"measurement": "inhibition of erastin-induced ferroptosis (PI staining, flow cytometry)", "setting": "MEFs [1]", "value": "can also inhibit"}, {"measurement": "inhibition of serum-dependent necrosis (cell viability / cell death)", "setting": "MEFs [2]", "value": "could inhibit"}, {"measurement": "inhibition of TNF-α induced apoptosis", "setting": "TNF-α induced apoptosis", "value": "cannot inhibit"}]}, {"molecule": "CCOC(=O)c1ccc(NC2CCCCC2)c(N)c1", "note": "[Fer-1]", "values": [{"measurement": "inhibition of serum-dependent cell death triggered by cystine starvation", "setting": "MEFs [2]", "value": "can block"}, {"measurement": "inhibition of serum-dependent necrosis (cell viability / cell death)", "setting": "MEFs [2]", "value": "can block"}]}, {"molecule": "COC(=O)CCC(=O)C(=O)OC", "note": "[α-KG, Dimethyl-α-Ketoglutarate]", "values": [{"measurement": "induction of cell death in the presence of diFBS", "setting": "MEFs [5]", "value": "can induce potent cell death"}]}, {"molecule": "transferrin: iron carrier protein in serum", "values": [{"measurement": "cell death on addition of transferrin to L-Gln", "setting": "bax/bak-DKO MEFs; with L-Gln 0.1 mM", "value": "further enhanced cell death"}]}, {"molecule": "NC(=O)CC[C@H](N)C(=O)O", "note": "[L-Gln, L-glutamine]", "values": [{"measurement": "induction of cell death by L-Gln alone", "setting": "bax/bak-DKO MEFs; L-Gln 0.1 mM alone", "value": "induced modest but measurable cell death"}, {"measurement": "induction of cell death in the presence of diFBS", "setting": "MEFs [5]", "value": "induced potent cell death"}]}, {"molecule": "N[C@@H](CCC(=O)N[C@@H](CS)C(=O)NCC(=O)O)C(=O)O", "note": "[GSH, glutathione]", "values": [{"measurement": "inhibition of serum-dependent cell death triggered by cystine starvation", "setting": "MEFs [2]", "value": "effectively blocked"}, {"measurement": "inhibition of serum-dependent necrosis (cell viability / cell death)", "setting": "MEFs [2]", "value": "effectively blocked"}]}, {"molecule": "N#CC(=C(/N)Sc1ccccc1N)/C(C#N)=C(\\N)Sc1ccccc1N", "note": "[Compound U0126]", "values": [{"measurement": "inhibition of erastin-induced ferroptosis (PI staining, flow cytometry)", "setting": "MEFs [1]", "value": "able to block"}, {"measurement": "antioxidant activity (reduction of DPPH)", "setting": "[4]", "value": "anti-oxidative property"}, {"measurement": "inhibition of serum-dependent necrosis (cell viability / cell death)", "setting": "MEFs [2]", "value": "able to block"}, {"measurement": "inhibition of MEK1/2 kinase activity", "setting": "MEK1/2", "value": "confirmed the inhibition of MEK1/2 kinase activity"}]}, {"molecule": "c1ccc(-c2ccccn2)nc1", "note": "[BIP, 2,2-bipyridyl]", "values": [{"measurement": "inhibition of serum-dependent necrosis (cell viability / cell death)", "setting": "MEFs [2]", "value": "blocked"}]}, {"molecule": "COC(=O)C[C@H](NC(=O)[C@H](C)NC(=O)[C@@H](NC(=O)OCc1ccccc1)C(C)C)C(=O)CF", "note": "[zVAD-FMK] (Cbz-Val-Ala-Asp(OMe)-CH2F)", "values": [{"measurement": "inhibition of serum-dependent necrosis (cell viability / cell death)", "setting": "MEFs [2]", "value": "failed to block"}, {"measurement": "block of caspase-3 activation induced by UV light", "setting": "caspase-3 activation", "value": "can block"}]}, {"molecule": "O=C(Cc1ccccc1)Nc1nnc(CCSCCc2nnc(NC(=O)Cc3ccccc3)s2)s1", "note": "[BETPS, Bis-2-(5-phenylacetamido-1,3 ,4-thiadiazol-2-yl)ethyl sulfide]", "values": [{"measurement": "inhibition of serum-dependent necrosis (cell viability / cell death)", "setting": "MEFs [2]", "value": "failed to block"}]}, {"molecule": "recombinant human holo-transferrin: recombinant human holo-transferrin expressed in rice", "values": [{"measurement": "induction of cell death in the presence of smFBS", "setting": "bax/bak-DKO MEFs; with smFBS", "value": "could induce cell death in a dose-dependent manner"}]}, {"molecule": "CC(=O)N[C@@H](CS)C(=O)O", "note": "[NAC, N-acetylcysteine]", "values": [{"measurement": "inhibition of serum-dependent cell death triggered by cystine starvation", "setting": "MEFs [2]", "value": "effectively blocked"}, {"measurement": "inhibition of serum-dependent necrosis (cell viability / cell death)", "setting": "MEFs [2]", "value": "effectively blocked"}]}, {"molecule": "N[C@@H](CSSC[C@H](N)C(=O)O)C(=O)O", "note": "[cystine]", "values": [{"measurement": "inhibition of serum-dependent necrosis (cell viability / cell death)", "setting": "MEFs [2]", "value": "rescued cells from necrosis"}]}, {"molecule": "L-alanine-L-glutamine [A-Q]", "values": [{"measurement": "induction of cell death in the presence of diFBS", "setting": "MEFs [5]", "value": "able to induce cell death"}]}, {"molecule": "Cc1c(C)c2c(c(C)c1O)CCC(C)(C(=O)O)O2", "note": "(stereo not drawn) [Trolox, 6-hydroxy-2,5,7,8-tetramethylchroman-2-carboxylic acid]", "values": [{"measurement": "inhibition of serum-dependent cell death triggered by cystine starvation", "setting": "MEFs [2]", "value": "effectively blocked"}, {"measurement": "inhibition of serum-dependent necrosis (cell viability / cell death)", "setting": "MEFs [2]", "value": "effectively blocked"}]}]}
